Data taken from patent publication US8642284B1, “Methods for identifying agents that alter NAD-dependent deacetylation activity of a SIR2 protein” (Massachusetts Institute of Technology, priority 1999, dated 2014).
pIC50: −log10 of the molar value. “Also recorded” adds a separate entry of the source.

Key:
[1] = biological target: T1, mSir2α (Mus musculus, UniProt Q923E4); assay: ADP-ribosylation assay, sensitivity of mSir2α to poly- and mono-ADP-ribosylation inhibitors (histone H2B, 32P-NAD); format: biochemical; conditions: for inhibition of the ADP-ribosylation activity of the mSir2α protein: 40, 200 and 1000 μM
T1 construct: ADP-ribosylase activity of bacterial recombinant full-length proteins of ySir2p and mSir2α was determined in in vitro assays; 6×His; made in house; host or cells: E. coli BL21 (DE3) pLysS with an extra copy of arginine tRNA gene, pET28a
T1 sequence (Q923E4 1-737): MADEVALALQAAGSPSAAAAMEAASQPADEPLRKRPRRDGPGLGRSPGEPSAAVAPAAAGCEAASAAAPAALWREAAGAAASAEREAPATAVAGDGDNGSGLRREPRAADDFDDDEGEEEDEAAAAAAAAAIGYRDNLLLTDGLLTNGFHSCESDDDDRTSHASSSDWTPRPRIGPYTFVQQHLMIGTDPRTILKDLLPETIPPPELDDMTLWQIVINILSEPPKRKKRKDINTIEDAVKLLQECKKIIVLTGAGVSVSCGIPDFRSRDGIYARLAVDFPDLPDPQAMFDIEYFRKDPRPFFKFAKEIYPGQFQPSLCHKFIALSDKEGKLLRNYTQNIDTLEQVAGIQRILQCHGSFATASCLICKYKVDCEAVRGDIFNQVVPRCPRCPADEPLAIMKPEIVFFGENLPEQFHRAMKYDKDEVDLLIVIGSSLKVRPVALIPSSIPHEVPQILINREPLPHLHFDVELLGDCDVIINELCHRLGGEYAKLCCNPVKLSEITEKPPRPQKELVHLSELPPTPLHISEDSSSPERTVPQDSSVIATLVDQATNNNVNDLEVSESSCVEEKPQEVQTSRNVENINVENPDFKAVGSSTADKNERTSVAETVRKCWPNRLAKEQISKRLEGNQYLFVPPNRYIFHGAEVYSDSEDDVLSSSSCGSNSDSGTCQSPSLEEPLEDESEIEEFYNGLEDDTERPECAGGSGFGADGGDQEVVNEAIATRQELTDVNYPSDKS
Experimental: The typical reaction was performed in 50 or 100 μl of the buffer containing 5 mM Tris-HCl [pH8.0 or 9.0], 4 mM MgCl2, 0.2 mM DTT, 1 μM cold β-NAD^+ (SIGMA®) and 8 μCi nicotinamide adenine dinucleotide 5′[α-^32P]triphosphate (NAD) as a donor of ADP-ribose (˜1000 Ci/mmol, Amersham Pharmacia Biotech). To check the sensitivity to poly- or mono-ADP-ribosylation inhibitors, 3-aminobenzamide (ICN Pharmaceuticals, CA), benzamide, novobiocin and coumermycin A1 (SIGMA®) were added to the reactions prior to adding Sir2 proteins, respectively. The wild type or mutant recombinant proteins (0.5-1 μg for ySir2p and 10 μg of mSir2α) were added with 4 μg of each histone purchased from Roche Molecular Biochemicals (Indianapolis, Ind.). For the peptide experiments, 5-10 μg of unacetylated or acetylated N-terminal tail peptides (amino acids 1-20) of H3 and H4 purchased from Upstate Biotechnology™ (Lake Placid, N.Y.) were used as substrates of the yeast and mouse Sir2 recombinant proteins.
To analyze histone modification, 25 μl of 100% trichloroacetic acid (TCA) solution was mixed to the reaction mixture and left on ice for 15 min. The protein precipitates were centrifuged at 4° C. and washed with 5 or 20% TCA solution twice. The pellets were dissolved in 15 μl of Leammli's sample buffer and boiled for 1.5 min. The proteins were electrophoresed in a 10-20% gradient SDS-PAGE gel. The gel was stained with COOMASSIE® Brilliant Blue R-250 (GibcoBRL Life Technologies™, Frederick, Md.) to check equal loading of histones, dried, and exposed to KODAK® X-OMAT film.
The sensitivity of the ADP-ribosylase activity of mSir2α to poly ADP-ribosylation inhibitors (3-aminobenzamide and benzamide) and mono-ADP-ribosylation inhibitors (novobiocin and coumermycin A1) was evaluated. (FIG. 4F).

[2] = biological target: T2, Sir2p (Saccharomyces cerevisiae, UniProt P06700); assay: NAD-dependent deacetylation of di-acetylated H3 peptide by recombinant yeast Sir2p (HPLC); format: biochemical; conditions: for function in the deacetylation of the H3 peptide by Sir2p: 1 mM NAD derivative; for inhibition of the deacetylase activity in a reaction with NAD: not shown
T2 construct: purified recombinant yeast (rSir2p) protein, mouse Sir2 (mSir2α) proteins and vector controls; 6×His; made in house; host or cells: E. coli BL21 (DE3), pET28a
Experimental: (§1) The typical reaction of Sir2 deacetylase activity was performed in 50 μl of buffer containing 50 mM Tris-HCl [pH 9.0], 4 mM MgCl2, 0.2 mM DTT, variable concentration of cold nicotinamide adenine dinucleotide (NAD) or NAD derivatives (SIGMA®, MO), 5-10 μg of the purified recombinant Sir2 proteins, and 10 μg of the histone H3 N-terminal tail peptide (amino acid 1-20) di-acetylated at positions 9 and 14 (Upstate Biotechnology™, NY). […] To detect the ADP-ribosylation activity, 8 μCi of NAD 5′-[α-^32P]triphosphate (˜1000 Ci/mmol, Amersham Pharmacia Biotech™, NJ) was added to the same reaction containing 1 μM cold NAD. Histone H3 protein (4 μg) (Roche Molecular Biochemicals™, IN) were used for this assay. All reaction mixtures were incubated at room temperature for 1 hr. Trichostatin A and coumermycin A1 (SIGMA™) were prepared in dimethylsulfoxide (DMSO, SIGMA®), and 5 μl of solvent or inhibitor was added to the reactions prior to adding Sir2 proteins.
(§2) After the incubation, the products were precipitated at −20° C. overnight by adding 50 μl of distilled water and 25 μl of 100% trichloroacetic acid (TCA) solution. For high pressure liquid chromatography (HPLC), the precipitates were reconstituted in 5% CH3CN and 0.1% trifluoroacetic acid (TFA) and run in the gradient concentration between 0.05% TFA and 0.043% TFA plus 80% CH3CN on Hewlett Packard Model 1100 HPLC system with 214TP52 column (VYDAC, CA). The chromatograms at the absorbance of 210 nm were digitally recorded and analyzed by Hewlett Packard ChemStation™ system (version A.06.03 [509]). Fractions of samples were collected every 1 min by Gilson™ Fraction Collector Model 203. Peptide sequencing was done by the Applied Biosystems PROCISE® 494 HT protein sequencing system. PTH amino acid chromatograms were recorded and analyzed by the ABI Model 610A2.1 data integration/analysis system.
The experiments employed purified recombinant Sir2p in a reaction with NAD and a peptide of the histone H3 amino-terminal tail (residues 1-20) di-acetylated at lysines 9 and 14. These lysines are hypoacetylated in silenced chromatin and mutations at these positions to glycine greatly reduce silencing in vivo (Thompson, J. S., et al., Nature 369: 245-247 (1994)). The products of a reaction containing 5 μg of recombinant yeast Sir2p (79 pmoles) (FIG. 8a), 10 μg of the H3 peptide (4.2 nmoles) increasing concentrations of NAD were analyzed s by high pressure liquid chromatography (HPLC).

[3] = system: mono-ADP-ribosyltransferases; conditions: literature value; read-out: reported IC50 concentration; cited from earlier work
[4] = system: di-acetylated H3 peptide (residues 1-20 acetylated on Lys9 and Lys14); assay: deacetylase activity of recombinant Sir2p and Sir2p core domain mutants on H3 peptide; format: biochemical; conditions: for NAD-dependent histone H3 deacetylase activity, of wild type activity: 5 μg recombinant protein
Experimental: as §1, §2
(§3) BL21 with SIR2 or the sir2 mutants subcloned into pET28a (NOVAGEN®) were induced with 1 mM IPTG for 1 hr. The recombinant proteins were purified by Nickel-NTA column under native condition. Ribosylation and deacetylation assays were performed using 1 μg of recombinant protein for the ribosylation assay and 5 μg for the deacetylation assay.
A set of mutations in highly conserved residues of the core domain of SIR2 were constructed by site-directed mutagenesis (FIG. 17a) and cloned into vectors, along with the wild type, to allow expression of the recombinant proteins in E. coli or expression of single-copy genes from the native SIR2 promoter in S. cerevisiae. These 6×his (SEQ ID NO: 39) tagged proteins were purified from E. coli by a Ni-NTA column (FIG. 17b) and analyzed for the NAD-dependent histone H3 deacetylase activity in an assay with a di-acetylated H3 peptide (residues 1-20 acetylated on Lys9 and Lys14) and 1 mM NAD. HPLC separation of the reaction products yields five peaks of which 1, 2, a portion of 3 and 4 are deacetylated species of peptide (FIG. 15).

[5] = system: histone H3; assay: ADP-ribosyltransferase activity of Sir2p core domain mutants; format: biochemical; conditions: histone H3 substrate; relative to wild type
Experimental: as §1
Electron-spray mass spectroscopy (also referred to herein as mass spectroscopy) was done on the PE Sciex Model API365™ system. Matrix assisted laser desorption/ionization (MALDI) mass spectroscopy can also be used. The electron-spray mass spectroscopy data were analyzed by the BioMultiView Program™ (version 1.3.1). To detect the ADP-ribosylated intact H3 protein, the pellets were dissolved in 15 μl of Leammli sample buffer, boiled for 1.5 min and electrophoresed in a 10-20% gradient SDS-PAGE gel. The gel was stained with Coomassie Brilliant Blue to check equal loading of histones, dried, and exposed to KODAK® X-OMAT film. To analyze the ADP-ribosylated H3 peptides, 10 μl of each reaction mixture was spotted on a cellulose TLC plate (EM Science™, NJ). The chromatography was performed for 9-10 hrs in a TLC chamber containing the 65:5:3:2:29 mixture of isobutyric acid, pyridine, acetic acid, butanol and water (Scheidtmann, K. H., et al., J. Virol. 44:116-133 (1982)). The plate was dried and exposed to KODAK® X-OMAT film. The peptide spots were checked by ninhydrin staining.
as §3
The Sir 2 mutant proteins were also analyzed for ADP-ribosyltransferase activity using the histone H3 substrate, (FIG. 17c). […] The same pattern of activities was observed using a peptide of the N-terminal tail of histone H3 (not shown).

T2 sequence (P06700 whole entry): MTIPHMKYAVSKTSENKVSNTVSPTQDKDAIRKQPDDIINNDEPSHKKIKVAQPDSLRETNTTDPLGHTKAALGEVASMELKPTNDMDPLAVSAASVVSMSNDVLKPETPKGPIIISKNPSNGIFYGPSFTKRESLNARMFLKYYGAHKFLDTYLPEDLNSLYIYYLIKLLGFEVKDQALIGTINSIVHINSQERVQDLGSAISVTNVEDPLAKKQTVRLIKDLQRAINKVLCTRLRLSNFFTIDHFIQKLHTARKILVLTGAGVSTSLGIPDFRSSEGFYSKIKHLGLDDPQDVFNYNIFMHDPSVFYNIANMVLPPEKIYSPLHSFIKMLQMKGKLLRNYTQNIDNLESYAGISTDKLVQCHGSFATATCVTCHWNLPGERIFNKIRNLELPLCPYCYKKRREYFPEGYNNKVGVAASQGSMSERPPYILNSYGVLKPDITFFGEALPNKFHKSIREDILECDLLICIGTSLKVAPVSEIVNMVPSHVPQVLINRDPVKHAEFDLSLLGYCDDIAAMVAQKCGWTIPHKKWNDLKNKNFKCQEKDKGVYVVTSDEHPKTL

Compound | ADP-ribosyltransferase activity [5] | NAD-dependent histone H3 deacetylase activity, of wild type activity ([4]; 1 mM NAD) | further results
NC(=O)c1cccc(N)c1 [3-aminobenzamide] |  |  | inhibition of the ADP-ribosylation activity of the mSir2α protein [1]: did not inhibit
NC(=O)C1=CN([C@@H]2O[C@H](COP(=O)(O)OP(=O)(O)OC[C@H]3O[C@@H](n4cnc5c(N)ncnc54)[C@H](O)[C@@H]3O)[C@@H](O)[C@H]2O)C=CC1 [NADH] |  |  | function in the deacetylation of the H3 peptide by Sir2p [2]: functioned weakly; inhibition of the deacetylase activity in a reaction with NAD [2]: neither NADH nor NADP significantly inhibited
NC(=O)C1=CN([C@@H]2O[C@H](COP(=O)(O)OP(=O)(O)OC[C@H]3O[C@@H](n4cnc5c(N)ncnc54)[C@H](OP(=O)(O)O)[C@@H]3O)[C@@H](O)[C@H]2O)C=CC1 [NADPH] |  |  | function in the deacetylation of the H3 peptide by Sir2p [2]: did not function significantly
NC(=O)c1ccc[n+]([C@@H]2O[C@H](COP(=O)([O-])OP(=O)(O)OC[C@H]3O[C@@H](n4cnc5c(N)ncnc54)[C@H](OP(=O)(O)O)[C@@H]3O)[C@@H](O)[C@H]2O)c1 [NADP] |  |  | function in the deacetylation of the H3 peptide by Sir2p [2]: did not function significantly; inhibition of the deacetylase activity in a reaction with NAD [2]: neither NADH nor NADP significantly inhibited
CC(/C=C/C(=O)NO)=C\[C@@H](C)C(=O)c1ccc(N(C)C)cc1 [TSA, trichostatin A] |  |  | inhibition of deacetylation by Sir2p ([2]; 400 nM): does not affect; also recorded: totally incapable of inhibiting
NC(=O)c1ccccc1 [benzamide] |  |  | inhibition of the ADP-ribosylation activity of the mSir2α protein [1]: did not inhibit
CO[C@@H]1[C@@H](OC(N)=O)[C@@H](O)[C@H](Oc2ccc3c(O)c(NC(=O)c4ccc(O)c(CC=C(C)C)c4)c(=O)oc3c2C)OC1(C)C [novobiocin] |  |  | pIC50 [3]: 3.43; inhibition of ADP-ribosylation by mSir2α ([1]; 200 μM): strongly inhibited
Sir2p: purified recombinant 6×His-tagged yeast Sir2 protein |  |  | input peptide deacetylated ([4]; areas under HPLC peaks 1, 2 and 4, 1 mM NAD): at least 27%; acetyl lysines at positions 9 and 14 deacetylated ([4]; peak 4, Edmann degradation, in the presence of NAD): 23-27%
mutant 261: 6×His tagged yeast Sir2p core domain mutant, Thr-261 mutated to alanine | 4% | 17% | 
mutant 270: 6×His tagged yeast Sir2p core domain mutant, Gly-270 mutated to alanine | 7% | 80% | 
mutant 271: 6×His tagged yeast Sir2p core domain mutant, Iso-271 mutated to alanine | 8% | 36% | 
mutant 275: 6×His tagged yeast Sir2p core domain mutant, Arg-275 mutated to alanine | about as active as wild type | 67% | 
mutant 345: 6×His tagged yeast Sir2p core domain mutant, Asn-345 mutated to alanine | completely inactive | inactive | 
mutant 347: 6×His tagged yeast Sir2p core domain mutant, Asp-347 mutated to alanine | completely inactive | inactive | 
